# Test results: patent publication US20130237609A1, “CELLULOSE DERIVATIVES FOR ENHANCING BIOAVAILABILITY OF FLAVONOIDS” (priority 2011, published 2013)
# Where two headings read alike, the source gives them in different places.
# Assays:
# [1] = formulated as nanocrystals, solid dispersion in HPMCAS, nanoemulsion (Onoue 2010); cited from earlier work
# [2] = Curcumin stability in buffer (degradation plus crystallization), UV-Vis, no EtOH added; details: after 5 h, no EtOH dilution
# [3] = Contact angle of water on spin-coated films; format: physicochemical; details: Cur/polymer weight ratio, PVP samples: initial value
# [4] = cited from earlier work
# [5] = Curcumin stability in buffer, UV-Vis after EtOH dilution; format: physicochemical
# [6] = pH 7.4 buffer; cited from earlier work
# [7] = with piperine as metabolic inhibitor, in humans; cited from earlier work
# [8] = Curcumin release profile, pH 1.2 buffer; format: physicochemical; details: polymer label = amorphous blend of curcumin with that polymer
# [9] = Curcumin stability in pH 7.4 buffer, HPLC after EtOH dilution; format: physicochemical; details: 24 h, room temperature, EtOH dilution before measurement
# Protocol: […]. Samples were incubated at room temperature for indicated times. After incubation, the reaction mixtures were diluted by 1 mL of ethanol and the UV-Vis absorption of the diluted solution was measured; then the diluted solution was filtered through a 1 μm PVDF membrane filter, and the filtrate was analyzed by HP LC. HPLC was performed with an Agilent 1200 series liquid chromatograph equipped with a 1200 quaternary pump, a variable wavelength UV/Vis detector and an Eclipse XDB-C18 column (150×4.6 mm, 5 μm particle size) using the mixture of 40% THF, 60% water and 1% acetic acid (pH 3.0) as mobile phase.
# (Wang 1997). Such chemical degradation is likely the result of retro-aldol reactions. (Priyadarsini 2009). […] This experiment differs from the literature report in that the inventors use ethanol to dilute the incubated aqueous curcumin solution just prior to measurement, to make sure that any crystallized curcumin is re-dissolved for detection. […]
# [10] = Curcumin release profile, pH 6.8 buffer; format: physicochemical; details: pH 6.8, UV-Vis
smiles,measurement,setting,value
"COc1cc(/C=C/C(=O)CC(=O)/C=C/c2ccc(O)c(OC)c2)ccc1O [Curcumin, 1,7-bis(4-hydroxy-3-methoxyphenyl)-1,6-heptadiene-3,5-dione]",improvement of oral bioavailability of curcumin,[1],9-16 fold
same,curcumin remained in solution,[2]; pH 6.8 buffer,~44%
same,curcumin remained in solution,[2]; pH 7.4 buffer,around 40%
same,contact angle of water on film,[3],102 °
same,Solubility,[4],0.003 mg/mL
same,Cur degraded (UV-Vis),"[5]; pH 6.8, after 5 h, EtOH dilution",7%
same,Cur degraded (UV-Vis),"[5]; pH 7.4, after 5 h, EtOH dilution",16%
same,Cur degraded (UV-Vis),"[5]; pH 7.4 buffer, 24 h, EtOH dilution before measurement",33%
same,half-life of curcumin,[6],5.4 min
same,improvement of curcumin oral bioavailability,[7],up to 20 fold
same,dissolution,[8],virtually no dissolution
same,"curcumin degraded (HPLC, curcumin peak RT 6.0 min)",[9],36%
same,Cur release concentration,[10],below the UV/Vis detection limit
O=c1oc2c(O)c(O)cc3c(=O)oc4c(O)c(O)cc1c4c23 [Ellagic Acid],Solubility,[4],0.01 mg/mL
O=c1c(O)c(-c2ccc(O)c(O)c2)oc2cc(O)cc(O)c12 [Quercetin],Solubility,[4],0.0004 mg/mL
Oc1ccc(C=Cc2cc(O)cc(O)c2)cc1 [Resveratrol],Solubility,[4],<0.0001 mg/mL
COC1=CC(=O)C[C@@H](C)[C@]12Oc1c(Cl)c(OC)cc(OC)c1C2=O [griseofulvin],Solubility,physchem; solubility of crystalline griseofulvin,0.012 mg/mL
same,Solubility,physchem; solubility of griseofulvin in the polymer matrix,≤ 30 mg/mL
